Laboratory results reported in US4806532A, “Inhibition of epithelial phosphate transport” (Mayo Foundation for Medical Education and Research, priority 1985, dated 1989).
Counter-ions that a name gives are not always drawn. Like-named read-outs stand apart in the source and are kept apart here.

Columns and labels:
[1] = Hydrolysis of phosphono-compounds (release of Pi) in the BBMV assay; settings: 1 mM; hydrolysis to release more than 5% Pi
Description: Compounds studied in the present experiments which inhibited BBM transport of Pi without hydrolysis to release more than 5% Pi are listed in Table 1.

Na-Pi cotransporter [2] = biological target: T1, Na-Pi cotransporter (Rattus norvegicus, UniProt Q06496); experiment: Na+-gradient-dependent 32Pi uptake by renal cortical BBMV (rapid filtration); format: biochemical; settings: for 32Pi Uptake 120 min / 32Pi Uptake 20 sec: 5 min preincubation; for 32Pi Uptake 120 min: equilibrium; for 32Pi Uptake 20 sec: mean ± SE of 3-5 experiments
T1 construct: from tissue; host or cells: rat renal cortex, brush border membrane vesicles
T1 sequence (Q06496 1-637): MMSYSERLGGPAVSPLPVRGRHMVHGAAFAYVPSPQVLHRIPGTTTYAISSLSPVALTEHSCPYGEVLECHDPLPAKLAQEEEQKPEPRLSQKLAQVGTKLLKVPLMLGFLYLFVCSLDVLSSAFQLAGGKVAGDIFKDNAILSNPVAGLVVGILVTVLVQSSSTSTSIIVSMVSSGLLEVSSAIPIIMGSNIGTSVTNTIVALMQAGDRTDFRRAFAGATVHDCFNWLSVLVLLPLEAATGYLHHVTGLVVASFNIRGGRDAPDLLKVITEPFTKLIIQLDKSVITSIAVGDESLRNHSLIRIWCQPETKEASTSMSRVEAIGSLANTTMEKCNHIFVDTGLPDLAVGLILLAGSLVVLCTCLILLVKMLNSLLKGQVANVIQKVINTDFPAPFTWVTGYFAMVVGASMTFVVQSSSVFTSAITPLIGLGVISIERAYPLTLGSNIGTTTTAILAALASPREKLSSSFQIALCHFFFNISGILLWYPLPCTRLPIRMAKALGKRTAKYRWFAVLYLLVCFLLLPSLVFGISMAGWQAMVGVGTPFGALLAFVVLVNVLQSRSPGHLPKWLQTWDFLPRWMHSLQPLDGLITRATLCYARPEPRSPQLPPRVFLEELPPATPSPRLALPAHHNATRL
Protocol: The brush border membrane vesicles (BBMV) were prepared from renal cortical tissue of adult male Sprague-Dawley rats of an average body weight of about 220 grams. Rats were fed ad libitum standard rat chow containing 0.7% Pi and had free access to distilled water. Rats were sacrificed under anesthesia and dissected renal cortical tissue was used for preparation of BBMV fraction by the divalent cation-precipitation procedure, employed and described in detail in J. Clin. Invest., 67, 1347 (1981) and J. Biol. Chem., 258, 5695 (1983), with the following modifications: (a) MgCl2 instead of CaCl2 was added to crude homogenate (final concentration 10 mM MgCl2) to precipitate membranes other than BBMV; (b) in the final step, BBMV were washed and equilibrated in a medium of pH=7.5, instead of pH=8.5. The enrichment and specific activities of typical BBM enzymes alkaline phosphatase (APases), γ-glutyamyl transferase (γ-GTT), leucineaminopeptidase (LAP) and maltase with use of these modifications were similar as in BBMV fractions prepared in our previous studies. As a final step in the preparative procedure, the BBMV fraction was washed and resuspended in a medium containing 300 mM mannitol and 5 mM Tris-HEPES adjusted to pH=t.5, referred to as "MTH-medium," unless specified otherwise. The analogous BBMV fractions, using the same procedure, were prepared from renal cortices of mongrel dogs, albino mice and New Zealand albino rabbits.
The BBMV uptake of ^32 Pi, D-[^3 H]-glucose, L-[^3 H]-proline and ^22 Na^+ was measured by means of a rapid filtration technique, as described in J. Clin. Invest., 67, 1347 (1981) and Am. J. Physiol., 246, F133-F139 (1984). Also, unless specified otherwise, the medium for the solute uptake assay consisted of following compounds (in final concentrations): 100 mM mannitol, 100 mM NaCl (or 100 mM KC1) and 5 mM Tris-HEPES (pH=7.5) and eitehr 0.1 mM K2 H^32 PO4, or 0.05 mM D-[^3 H]-glucose, or 0.025 mM L-[^3 H]-proline. IN the ^22 Na^+ uptake studies, the assay medium contained 100 mM ^22 NaCl (^22 NaCl about […] per tube), 100 mM mannitol and 5 mM Tris-HEPES (pH 7.5).
In most experiments, the Na^+ -gradient-dependent ^32 Pi uptake in the concentrative "uphill" phase was measured at 20 seconds period. Since Na^+ -independent Pi uptake in this time period was quantitatively minor component (<5%) of the Na^+ -gradient-dependent Pi uptake, it was not routinely subtracted.

[3] = system: D-[^3 H]--glucose uptake by BBMV from rat small intestine; experiment: D-[3H]-glucose uptake by intestinal BBMV; format: biochemical; settings: 1 mM; for D-[3H]-glucose uptake 120 min: control 57 ± 2; for D-[3H]-glucose uptake 15 sec: control 67 ± 0.5
Protocol: The intestinal BBMV fractions were prepared from mucosa of rat small intestine of rats using the modified magnesium- precipitation method as described by B. Steiger and H. Murer [Eur. J. Biochem., 135, 95 (1983)]. This intestinal BBMV fraction is analogous to the BBMV fraction isolated from kidney. […]

Na-Pi cotransporter [4] = experiment: Na+-gradient-dependent 32Pi uptake by intestinal BBMV; format: biochemical, rat; settings: 1 mM; equilibrium; rat small intestine BBMV; control 151 ± 4
Protocol: The intestinal BBMV fractions were prepared from mucosa of rat small intestine of rats using the modified magnesium- precipitation method as described by B. Steiger and H. Murer [Eur. J. Biochem., 135, 95 (1983)]. This intestinal BBMV fraction is analogous to the BBMV fraction isolated from kidney. The uptake of ^32 Pi in the presence of Na^+ -gradient [Nao^+ >Nai^+ ] was determined by a rapid filtration technique similar to that employed in the transport measurements on renal BBMV. The Na^+ -gradient [Nao^+ >Nai^+ ]-dependent Pi uptake in the initial phase was measured after 30 sec. The ^32 Pi uptake at equilibrium was measured at 180 min.

[5] = 1 mM, initial uptake at 20 sec, rat kidney cortex BBMV, read-out: Δ% (inhibition as percent decrease from control) of Na+-gradient-dependent 32Pi uptake

SMILES	Note: hydrolysis [1]	Δ% ratio of uptake at uphill phase (20 sec) and equilibrium phase (120 min) (Na-Pi cotransporter [2]; 0.2 mM)	32Pi Uptake 120 min (Na-Pi cotransporter [2]; 0.2 mM)	32Pi Uptake 20 sec (Na-Pi cotransporter [2]; 0.2 mM)	Δ% ratio of uptake at uphill phase (20 sec) and equilibrium phase (120 min) (Na-Pi cotransporter [2]; 1.0 mM)	32Pi Uptake 120 min (Na-Pi cotransporter [2]; 1.0 mM)	32Pi Uptake 20 sec (Na-Pi cotransporter [2]; 1.0 mM)	inhibition at 1000 µM (Na-Pi cotransporter [2]; [5])	Δ% ratio of uptake at uphill phase (20 sec) and equilibrium phase (120 min) (Na-Pi cotransporter [2]; 5.0 mM)	32Pi Uptake 120 min (Na-Pi cotransporter [2]; 5.0 mM)	32Pi Uptake 20 sec (Na-Pi cotransporter [2]; 5.0 mM)	D-[3H]-glucose uptake 120 min [3]	D-[3H]-glucose uptake 15 sec [3]	32Pi-phosphate uptake 180 min (Na-Pi cotransporter [4])	further results
O=C(O)P(=O)(O)O [TPFA, Phosphonoformic acid, trisodium salt hexahydrate]	no	+262 ± 44%	264 ± 53 pmoles/mg protein	869 ± 45 pmoles/mg protein	+137 ± 27%	248 ± 47 pmoles/mg protein	541 ± 39 pmoles/mg protein	-53%	< 0.0%	239 ± 44 pmoles/mg protein	153 ± 28 pmoles/mg protein	57 ± 2 pmoles/mg protein	69 ± 2 pmoles/mg protein	146 ± 5 pmoles/mg protein	effect on intravesicular volume of BBMV (Na-Pi cotransporter [2]): did not alter; nature of the inhibitory effect on Pi uptake (Na-Pi cotransporter [2]): competitive; inhibition at 1000 µM (Na-Pi cotransporter [2]; 20 s, Rat, 1 mM TPFA, read-out: percent decrease of 20 sec 32Pi-uptake relative to control value): 59.1%; inhibition at 5000 µM (Na-Pi cotransporter [2]; 20 s, Rat, 5 mM TPFA, read-out: percent decrease of 20 sec 32Pi-uptake relative to control value): 78%; effect on 32Pi uptake by BBMV in the absence of Na+ (Na-Pi cotransporter [2]; NaCl replaced by KCl, 1 mM TPFA, FIG. 1): had no effect; 32Pi-uptake 120 min (Na-Pi cotransporter [2]; Rat, 1 mM TPFA, control 361 ± 9): 359 ± 8 pmoles Pi/mg protein/time; 32Pi-uptake 20 sec (Na-Pi cotransporter [2]; Rat, 1 mM TPFA, control 1570 ± 31): 783 ± 6 pmoles Pi/mg protein/time; 32Pi-uptake 20 sec (Na-Pi cotransporter [2]; Rat, 5 mM TPFA): 344 ± 7 pmoles Pi/mg protein/time; 32Pi-uptake 120 min (Na-Pi cotransporter [2]; Rat, 5 mM TPFA): 379 ± 34 pmoles Pi/mg protein/time; Ki (Na-Pi cotransporter [2]; competitive inhibition, renal cortical BBMV): 460 µM; effect on 32Pi uptake under Na+ equilibrium conditions [Na+i = Na+o] (Na-Pi cotransporter [2]; initial fast uptake phase (0-60 seconds), data not shown): inhibited
O=C(O)CP(=O)(O)O [PAA, phosphonoacetic acid]	no	+305 ± 101%	320 ± 80 pmoles/mg protein	1057 ± 89 pmoles/mg protein	+331 ± 86%	274 ± 51 pmoles/mg protein	1019 ± 94 pmoles/mg protein	-18%	+261 ± 78%	269 ± 52 pmoles/mg protein	876 ± 68 pmoles/mg protein	61 ± 3 pmoles/mg protein	68 ± 3 pmoles/mg protein	163 ± 6 pmoles/mg protein	–
